This assay deals with CD2F1 mice, ip Colon 26 adenocarcinoma, median survival T/C. Kind of assay: NCI In Vivo Anticancer Drug Screen. Data for tumor model Colon 26 Adenocarcinoma (intraperitoneal) in CD2F1 (CDF1) mice. Conditions: endpoint: median survival time, higher = longer survival. The method, then:
The antitumor activity of compounds was measured in mice bearing transplantable tumors. Survival or tumor size were measured and the results are expressed as the measurement made in the treated group (T) divided by the measurement made in the vehicle treated control group (C). The tumor model used in this assay is Colon 26 Adenocarcinoma (intraperitoneal) in CD2F1 (CDF1) mice

[1] abbreviates: dose: 25.0 mg/kg/injection, schedule: Q04DX003 (ip), vehicle: Klucel (hydroxypropylcellulose) (HPC).
Setting [2] is: dose: 50.0 mg/kg/injection, schedule: Q04DX003 (ip), vehicle: Klucel (hydroxypropylcellulose) (HPC).
Where [3] appears, read: dose: 200.0 mg/kg/injection, schedule: Q04DX003 (ip), vehicle: Klucel (hydroxypropylcellulose) (HPC).

SMILES strings stand for the structures. Several values for one entry are separate records, joined by “and”; a condition that tells them apart may be missing. Equal values may be shown once. Toxic doses and inconclusive results are not listed.

With `O=C1c2c(O)ccc(O)c2C(=O)c2c(NCCNCCO)ccc(NCCNCCO)c21`, the T/C by setting is: (dose: 0.19 mg/kg/injection, schedule: Q01DX009 (ip), vehicle: saline) 216 % of control and 277 % of control; (dose: 0.25 mg/kg/injection, schedule: Q01DX009 (ip), vehicle: acid diluted with saline) 359 % of control; (dose: 0.38 mg/kg/injection, schedule: Q01DX009 (ip), vehicle: saline) 289 % of control and 416 % of control; (dose: 0.39 mg/kg/injection, schedule: Q01DX009 (ip), vehicle: acid diluted with saline) 259 % of control; (dose: 0.39 mg/kg/injection, schedule: Q01DX009 (sc), vehicle: acid diluted with saline) 104 % of control; (dose: 0.5 mg/kg/injection, schedule: Q01DX009 (ip), vehicle: acid diluted with saline) 365 % of control. Also, the T/C was 305 % of control (dose: 0.65 mg/kg/injection, schedule: Q01DX009 (ip), vehicle: acid diluted with saline); 104 % of control (dose: 0.65 mg/kg/injection, schedule: Q01DX009 (sc), vehicle: acid diluted with saline); 289 % of control and 416 % of control (dose: 0.75 mg/kg/injection, schedule: Q01DX009 (ip), vehicle: saline); 365 % of control (dose: 1.0 mg/kg/injection, schedule: Q01DX009 (ip), vehicle: acid diluted with saline); 386 % of control (dose: 1.04 mg/kg/injection, schedule: Q04DX003 (ip), vehicle: acid diluted with saline); 116 % of control (dose: 1.04 mg/kg/injection, schedule: Q04DX003 (iv), vehicle: acid diluted with saline). Besides, the T/C reads like this: (dose: 1.08 mg/kg/injection, schedule: Q01DX009 (ip), vehicle: acid diluted with saline) 353 % of control; (dose: 1.08 mg/kg/injection, schedule: Q01DX009 (sc), vehicle: acid diluted with saline) 112 % of control; (dose: 1.5 mg/kg/injection, schedule: Q01DX009 (ip), vehicle: saline) 109 % of control and 277 % of control; (dose: 1.5 mg/kg/injection, schedule: Q07DX003 (iv), vehicle: acid diluted with saline) 100 % of control; (dose: 1.73 mg/kg/injection, schedule: Q04DX003 (ip), vehicle: acid diluted with saline) 270 % of control; (dose: 1.73 mg/kg/injection, schedule: Q04DX003 (iv), vehicle: acid diluted with saline) 120 % of control. The T/C is, setting by setting: (dose: 1.8 mg/kg/injection, schedule: Q01DX009 (ip), vehicle: acid diluted with saline) 110 % of control; (dose: 2.0 mg/kg/injection, schedule: Q01DX009 (ip), vehicle: acid diluted with saline) 365 % of control; (dose: 2.88 mg/kg/injection, schedule: Q04DX003 (ip), vehicle: acid diluted with saline) 265 % of control; (dose: 3.24 mg/kg/injection, schedule: Q01DX001 (ip), vehicle: acid diluted with saline) 209 % of control; (dose: 3.24 mg/kg/injection, schedule: Q01DX001 (iv), vehicle: acid diluted with saline) 114 % of control; (dose: 4.8 mg/kg/injection, schedule: Q04DX003 (ip), vehicle: acid diluted with saline) 197 % of control. The T/C is 237 % of control (dose: 5.4 mg/kg/injection, schedule: Q01DX001 (ip), vehicle: acid diluted with saline); 110 % of control (dose: 5.4 mg/kg/injection, schedule: Q01DX001 (iv), vehicle: acid diluted with saline); 96 % of control (dose: 6.0 mg/kg/injection, schedule: Q07DX003 (iv), vehicle: acid diluted with saline); 123 % of control (dose: 9.0 mg/kg/injection, schedule: Q01DX001 (ip), vehicle: acid diluted with saline); 123 % of control (dose: 9.0 mg/kg/injection, schedule: Q01DX001 (iv), vehicle: acid diluted with saline).
For the molecule `COc1cccc2c1C(=O)c1c(O)c3c(c(O)c1C2=O)C[C@@](O)(C(=O)COC(=O)c1cccnc1)C[C@@H]3OC1CC(N)C(O)C(C)O1` (stereo partly specified), the T/C was 113 % of control (dose: 5.5 mg/kg/injection, schedule: Q07DX003 (iv), vehicle: other); 108 % of control (dose: 8.5 mg/kg/injection, schedule: Q07DX003 (iv), vehicle: other); 114 % of control (dose: 13.1 mg/kg/injection, schedule: Q07DX003 (iv), vehicle: other); 99 % of control (dose: 17.0 mg/kg/injection, schedule: Q07DX002 (iv), vehicle: alkali diluted with saline); 115 % of control (dose: 20.3 mg/kg/injection, schedule: Q07DX003 (iv), vehicle: other); 94 % of control (dose: 26.0 mg/kg/injection, schedule: Q07DX002 (iv), vehicle: alkali diluted with saline).
In the case of `CC(=O)OCc1cc(=O)n(C)c2c3c4c(cc12)c(C)cc(=O)n4CO3`, the T/C (dose: 12.5 mg/kg/injection, schedule: Q04DX003 (ip), vehicle: Klucel (hydroxypropylcellulose) (HPC)) is 106 % of control; the T/C under setting [1] is 106 % of control; the T/C under setting [2] was 115 % of control; the T/C under setting [3] is 115 % of control.
Turning to `C/C=C/C1=CC(=O)C(O)C1O` (stereo unspecified), the T/C is 106 % of control (dose: 45.0 mg/kg/injection, schedule: Q04DX002 (ip), vehicle: water); 99 % of control (dose: 90.0 mg/kg/injection, schedule: Q04DX002 (ip), vehicle: water); 101 % of control (dose: 180.0 mg/kg/injection, schedule: Q04DX002 (ip), vehicle: water).
For `C/C=C(\C)C(=O)OC1C(C)C2(O)C(C=C(CO)CC3(O)C(=O)C(C)=CC32)C2C(C)(C)C12OC(=O)CCCCCCCCC` (stereo unspecified), the T/C is, setting by setting: (dose: 0.03 mg/kg/injection, schedule: Q04DX003 (ip), vehicle: saline + alcohol) 93 % of control; (dose: 0.06 mg/kg/injection, schedule: Q04DX003 (ip), vehicle: saline + alcohol) 86 % of control; (dose: 0.13 mg/kg/injection, schedule: Q04DX003 (ip), vehicle: saline + alcohol) 90 % of control; (dose: 0.25 mg/kg/injection, schedule: Q04DX003 (ip), vehicle: saline + alcohol) 86 % of control.
On to `CCCCCC(=O)O[C@]1(C(C)=O)CC[C@H]2[C@@H]3CCC4=CC(=O)CC[C@]4(C)[C@H]3CC[C@@]21C`, for which the T/C is 101 % of control under setting [1]; 106 % of control under setting [2]; 100 % of control (dose: 100.0 mg/kg/injection, schedule: Q04DX003 (ip), vehicle: Klucel (hydroxypropylcellulose) (HPC)); 106 % of control under setting [3]; 103 % of control (dose: 400.0 mg/kg/injection, schedule: Q04DX003 (ip), vehicle: Klucel (hydroxypropylcellulose) (HPC)).

The values above are taken from PubChem BioAssay AID210 (DTP/NCI, 2004).
